In one experiment the target is T1, PxCDA2 (Podosphaera xanthii, UniProt A0A6S4IDJ3).
T1 construct: recombinant, N-terminal 6-His tag, expressed in E. coli
Put plainly: fluorescamine assay, colloidal chitin substrate. It is filed as biochemical. The text has this: fluorescamine assay, colloidal chitin substrate on PxCDA2

A further experiment concerns the target T2, PxCDA1 (Podosphaera xanthii, UniProt A0A6S4IFB1).
T2 construct: recombinant, N-terminal 6-His tag, expressed in E. coli
As to the kind of experiment: fluorescamine assay, colloidal chitin substrate. The format is biochemical. The source says:
fluorescamine assay, colloidal chitin substrate on PxCDA1

T2 sequence (A0A6S4IFB1 23-324 limits assumed): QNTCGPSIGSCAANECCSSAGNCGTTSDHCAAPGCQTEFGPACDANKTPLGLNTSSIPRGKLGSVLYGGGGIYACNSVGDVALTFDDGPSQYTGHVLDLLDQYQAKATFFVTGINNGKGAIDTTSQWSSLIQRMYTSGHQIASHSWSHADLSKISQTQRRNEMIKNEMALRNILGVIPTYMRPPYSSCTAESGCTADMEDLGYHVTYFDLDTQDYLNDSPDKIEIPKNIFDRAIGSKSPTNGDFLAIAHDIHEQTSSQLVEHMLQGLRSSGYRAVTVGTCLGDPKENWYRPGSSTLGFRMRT
T1 sequence (A0A6S4IDJ3 23-314 limits assumed): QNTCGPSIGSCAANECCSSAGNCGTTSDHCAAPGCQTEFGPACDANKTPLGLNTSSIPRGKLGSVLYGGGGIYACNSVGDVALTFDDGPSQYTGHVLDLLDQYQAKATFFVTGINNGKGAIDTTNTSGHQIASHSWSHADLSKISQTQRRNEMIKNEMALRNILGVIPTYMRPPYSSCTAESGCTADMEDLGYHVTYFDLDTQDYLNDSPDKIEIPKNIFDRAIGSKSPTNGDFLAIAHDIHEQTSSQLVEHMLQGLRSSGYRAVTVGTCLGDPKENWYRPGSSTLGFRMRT

`CN1C(=O)C(=Cc2cccc(OCC(=O)O)c2)C(=O)N(C)C1=O` [VS#2-1]: the inhibition at 100 µM turned out to be 74.5% on PxCDA2 and 86.9% on PxCDA1.
For `Cn1c(=O)n(CC(=O)O)c(=O)c2c1nc1n2CCS1` [VS#2-2], in that order: 93% and 79.4%.
On to `C=CCN1C(=O)NC(=O)/C(=C/c2ccc(OCC(=O)O)c(OC)c2)C1=O` [VS#2-3], for which the results for the inhibition at 100 µM against PxCDA2 and on PxCDA1 were 74.5% and 86.8%, respectively.

Values taken from PMC10389753, “Rational Design of Chitin Deacetylase Inhibitors for Sustainable Agricultural Use Based on Molecular Topology” (Journal of Agricultural and Food Chemistry, 2022).
